Test results as given in ChEMBL document CHEMBL1201862, “PubChem BioAssay data set” (2004).
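1) Cells in 96-well plates. 2) Compound, 48 h, 5 concentrations. 3) Linear interpolation between surrounding doses. 4) Unreached endpoint = highest concentration. Abbreviation: GI50, concentration required for 50% inhibition of growth.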 Activity calls are given as the source filed them. Rule as the data show it: active = GI50 up to about 1.1 µM and inactive = higher.

Legend:
Test in all cases: NCI-60 cell line screen, 48 h
MCF7 = system: MCF7
NCI-H23 = system: NCI-H23
SNB-19 = system: SNB-19
OVCAR-3 = system: OVCAR-3
HCT-15 = system: HCT-15
MDA-N = system: MDA-N
NCI-H460 = system: NCI-H460
K562 = system: K562
HT-29 = system: HT-29
BT-549 = system: BT-549
CCRF-CEM = system: CCRF-CEM
SK-OV-3 = system: SK-OV-3
UACC-257 = system: UACC-257
RPMI-8226 = system: RPMI-8226
KM12 = system: KM12
SNB-75 = system: SNB-75
SK-MEL-28 = system: SK-MEL-28
SF-268 = system: SF-268
NCI-H522 = system: NCI-H522
RXF 393 = system: RXF 393

Structure (SMILES) | GI50 (MCF7) | GI50 (NCI-H23) | GI50 (SNB-19) | GI50 (OVCAR-3) | GI50 (HCT-15) [µM] | GI50 (MDA-N) | GI50 (NCI-H460) | GI50 (K562) | GI50 (HT-29) | GI50 (BT-549) | GI50 (CCRF-CEM) | GI50 (SK-OV-3) | GI50 (UACC-257) | GI50 (RPMI-8226) | GI50 (KM12) | GI50 (SNB-75) | GI50 (SK-MEL-28) | GI50 (SF-268) | GI50 (NCI-H522) | GI50 (RXF 393)
O=c1cc(-c2ccccc2)oc2ccc(-c3ccc4oc(-c5ccccc5)cc(=O)c4c3)cc12 | 18.8 µM (inactive) | 15.7 µM (inactive) | 6.82 µM (inactive) | > 10 µM (inactive) | 15.8 | 15.4 µM (inactive) | 19.6 µM (inactive) | 14.2 µM (inactive) | 30.9 µM (inactive) | > 10 µM (inactive) | 18 µM (inactive) | 44.8 µM (inactive) | > 10 µM (inactive) | 13.5 µM (inactive) | – | – | – | – | – | –
COc1cc(N(CCC#N)CCC#N)ccc1/C=N\NC(=O)c1ccc(C)cc1 | – | > 100 µM (inactive) | > 100 µM (inactive) | 75.2 µM (inactive) | > 100 | > 100 µM (inactive) | > 100 µM (inactive) | > 100 µM (inactive) | > 100 µM (inactive) | > 100 µM (inactive) | > 100 µM (inactive) | > 100 µM (inactive) | > 100 µM (inactive) | – | > 100 µM (inactive) | > 100 µM (inactive) | > 100 µM (inactive) | > 100 µM (inactive) | > 100 µM (inactive) | > 100 µM (inactive)
COc1cc(/C=C/C(=O)OC[C@H](Br)[C@H](OC(C)=O)c2ccc3c(c2)OCO3)cc(OC)c1OC | > 100 µM (inactive) | > 100 µM (inactive) | > 100 µM (inactive) | > 100 µM (inactive) | > 100 | – | – | > 100 µM (inactive) | > 100 µM (inactive) | > 100 µM (inactive) | > 100 µM (inactive) | > 100 µM (inactive) | > 100 µM (inactive) | 61.1 µM (inactive) | > 100 µM (inactive) | – | > 100 µM (inactive) | > 100 µM (inactive) | > 100 µM (inactive) | > 100 µM (inactive)
COc1cccc(C2c3cc4c(cc3OC(C)(N3CCCC3)C2C)OCO4)c1 (stereo not given) | 9.51 µM (inactive) | 20.5 µM (inactive) | 21.9 µM (inactive) | 4.89 µM (inactive) | 5.35 | 2.13 µM (inactive) | 9.62 µM (inactive) | 58.3 µM (inactive) | 3.77 µM (inactive) | – | 32.7 µM (inactive) | 11.9 µM (inactive) | 18.2 µM (inactive) | – | 4 µM (inactive) | 3.18 µM (inactive) | 20.3 µM (inactive) | 27.4 µM (inactive) | 2.37 µM (inactive) | 14 µM (inactive)
O=C1C(Sc2ccc3ccccc3c2)=C(Sc2ccc3ccccc3c2)C(=O)c2ccccc21 | 11.2 µM (inactive) | 5.13 µM (inactive) | 8.09 µM (inactive) | – | 9.06 | – | 7.82 µM (inactive) | 3.47 µM (inactive) | 15.6 µM (inactive) | 12 µM (inactive) | – | 22.7 µM (inactive) | 3.57 µM (inactive) | – | – | 14 µM (inactive) | 15.2 µM (inactive) | 11 µM (inactive) | 1.97 µM (inactive) | 14.8 µM (inactive)
COC(=O)C(CCc1ccccc1I)C1=CCC2(CC1)OCCO2 (stereo not given) | 32.7 µM (inactive) | 30.7 µM (inactive) | 36.3 µM (inactive) | 29.4 µM (inactive) | 34.1 | 24.2 µM (inactive) | 65.8 µM (inactive) | 66.4 µM (inactive) | 35.1 µM (inactive) | – | 14 µM (inactive) | > 100 µM (inactive) | 29.4 µM (inactive) | 62.2 µM (inactive) | 33.1 µM (inactive) | 34 µM (inactive) | 89.9 µM (inactive) | 57.9 µM (inactive) | 18.7 µM (inactive) | 17.9 µM (inactive)
COc1cc(C2c3cc4c(cc3[C@@H](Nc3ccccc3)C3CO[C@@H](OC)[C@H]23)OCO4)cc(OC)c1O (stereo not given in full) | 4.5 µM (inactive) | – | 6.07 µM (inactive) | – | 3.61 | – | 1.11 µM (active) | 6.78 µM (inactive) | 4.82 µM (inactive) | – | 2.76 µM (inactive) | 9.06 µM (inactive) | > 25 µM (inactive) | 3.01 µM (inactive) | 5.83 µM (inactive) | 7.41 µM (inactive) | 19.6 µM (inactive) | 7.29 µM (inactive) | 6.58 µM (inactive) | –
CC(C)NC(NC(C)C)=C(S(=O)(=O)C(F)(F)C(F)(F)C(F)(F)C(F)(F)F)S(=O)(=O)C(F)(F)C(F)(F)C(F)(F)C(F)(F)F | > 100 µM (inactive) | > 100 µM (inactive) | > 100 µM (inactive) | > 100 µM (inactive) | > 100 | > 100 µM (inactive) | > 100 µM (inactive) | > 100 µM (inactive) | > 100 µM (inactive) | 90.8 µM (inactive) | > 100 µM (inactive) | > 100 µM (inactive) | > 100 µM (inactive) | > 100 µM (inactive) | > 100 µM (inactive) | > 100 µM (inactive) | > 100 µM (inactive) | > 100 µM (inactive) | > 100 µM (inactive) | –
